Laboratory results: the NIST ThermoML archive (doi:10.1021/je100256w)
Numbers after ± are expanded uncertainties.

Experiment: cn = amount concentration of the nth substance listed, in mol/dm3
Conditions: 101 kPa, Liquid, Dip Cell

## O=C([O-])c1ccccc1O.[Na+] [sodium salicylate] + O
298 K, c1 = 3.09e-05
  electrical conductivity: 2.48e-05 ± 6.1e-07 S/m
298 K, c1 = 6.1e-05
  electrical conductivity: 4.76e-05 ± 1.2e-06 S/m
298 K, c1 = 9.04e-05
  electrical conductivity: 6.66e-05 ± 1.7e-06 S/m
298 K, c1 = 0.000119
  electrical conductivity: 8.34e-05 ± 2.1e-06 S/m
298 K, c1 = 0.000147
  electrical conductivity: 0.000102 ± 2.7e-06 S/m
298 K, c1 = 0.0001744
  electrical conductivity: 0.000118 ± 3.2e-06 S/m
298 K, c1 = 0.0002064
  electrical conductivity: 0.000135 ± 3.6e-06 S/m
298 K, c1 = 0.0002376
  electrical conductivity: 0.000152 ± 4.3e-06 S/m
298 K, c1 = 0.0002778
  electrical conductivity: 0.000173 ± 4.8e-06 S/m
298 K, c1 = 0.0003166
  electrical conductivity: 0.000192 ± 5.3e-06 S/m
298 K, c1 = 0.0003541
  electrical conductivity: 0.000204 ± 5.1e-06 S/m
298 K, c1 = 0.0003903
  electrical conductivity: 0.00021 ± 5.8e-06 S/m
298 K, c1 = 0.0004339
  electrical conductivity: 0.000226 ± 6.9e-06 S/m
298 K, c1 = 0.0004757
  electrical conductivity: 0.000244 ± 7.5e-06 S/m
298 K, c1 = 0.0005237
  electrical conductivity: 0.000261 ± 8.1e-06 S/m
298 K, c1 = 0.0005695
  electrical conductivity: 0.000281 ± 8.7e-06 S/m
298 K, c1 = 0.0006132
  electrical conductivity: 0.000297 ± 9.1e-06 S/m
298 K, c1 = 0.000655
  electrical conductivity: 0.000311 ± 9.9e-06 S/m
298 K, c1 = 0.0007014
  electrical conductivity: 0.000322 ± 1e-05 S/m
298 K, c1 = 0.0007517
  electrical conductivity: 0.000344 ± 1.1e-05 S/m
298 K, c1 = 0.0007993
  electrical conductivity: 0.00036 ± 1.1e-05 S/m
298 K, c1 = 0.0008444
  electrical conductivity: 0.000373 ± 1.1e-05 S/m
298 K, c1 = 0.0008974
  electrical conductivity: 0.000389 ± 1.2e-05 S/m
298 K, c1 = 0.0009472
  electrical conductivity: 0.000401 ± 1.3e-05 S/m
298 K, c1 = 0.001003
  electrical conductivity: 0.000417 ± 1.3e-05 S/m
298 K, c1 = 0.001063
  electrical conductivity: 0.000433 ± 1.4e-05 S/m
298 K, c1 = 0.001123
  electrical conductivity: 0.00045 ± 1.4e-05 S/m
298 K, c1 = 0.001181
  electrical conductivity: 0.000464 ± 1.5e-05 S/m
298 K, c1 = 0.001241
  electrical conductivity: 0.000474 ± 1.6e-05 S/m
298 K, c1 = 0.001301
  electrical conductivity: 0.000494 ± 1.7e-05 S/m
303 K, c1 = 3.09e-05
  electrical conductivity: 2.4e-05 ± 6.2e-07 S/m
303 K, c1 = 6.1e-05
  electrical conductivity: 4.74e-05 ± 1.2e-06 S/m
303 K, c1 = 9.04e-05
  electrical conductivity: 6.95e-05 ± 1.9e-06 S/m
303 K, c1 = 0.000119
  electrical conductivity: 8.73e-05 ± 2.5e-06 S/m
303 K, c1 = 0.000147
  electrical conductivity: 0.000107 ± 3e-06 S/m
303 K, c1 = 0.0001744
  electrical conductivity: 0.000125 ± 3.5e-06 S/m
303 K, c1 = 0.0002064
  electrical conductivity: 0.000144 ± 4.1e-06 S/m
303 K, c1 = 0.0002376
  electrical conductivity: 0.000163 ± 4.5e-06 S/m
303 K, c1 = 0.0002778
  electrical conductivity: 0.000185 ± 5.2e-06 S/m
303 K, c1 = 0.0003166
  electrical conductivity: 0.000203 ± 5.2e-06 S/m
303 K, c1 = 0.0003541
  electrical conductivity: 0.00021 ± 5.5e-06 S/m
303 K, c1 = 0.0003903
  electrical conductivity: 0.000227 ± 6.7e-06 S/m
303 K, c1 = 0.0004339
  electrical conductivity: 0.000248 ± 7.4e-06 S/m
303 K, c1 = 0.0004757
  electrical conductivity: 0.000266 ± 7.9e-06 S/m
303 K, c1 = 0.0005237
  electrical conductivity: 0.000288 ± 8.7e-06 S/m
303 K, c1 = 0.0005695
  electrical conductivity: 0.000307 ± 9.4e-06 S/m
303 K, c1 = 0.0006132
  electrical conductivity: 0.000325 ± 9.8e-06 S/m
303 K, c1 = 0.000655
  electrical conductivity: 0.000342 ± 1e-05 S/m
303 K, c1 = 0.0007014
  electrical conductivity: 0.00036 ± 1.1e-05 S/m
303 K, c1 = 0.0007517
  electrical conductivity: 0.000378 ± 1.1e-05 S/m
303 K, c1 = 0.0007993
  electrical conductivity: 0.000395 ± 1.2e-05 S/m
303 K, c1 = 0.0008444
  electrical conductivity: 0.000409 ± 1.3e-05 S/m
303 K, c1 = 0.0008974
  electrical conductivity: 0.000422 ± 1.4e-05 S/m
303 K, c1 = 0.0009472
  electrical conductivity: 0.000448 ± 1.5e-05 S/m
303 K, c1 = 0.001003
  electrical conductivity: 0.000459 ± 1.6e-05 S/m
303 K, c1 = 0.001063
  electrical conductivity: 0.000483 ± 1.6e-05 S/m
303 K, c1 = 0.001123
  electrical conductivity: 0.000492 ± 1.6e-05 S/m
303 K, c1 = 0.001181
  electrical conductivity: 0.000515 ± 1.8e-05 S/m
303 K, c1 = 0.001241
  electrical conductivity: 0.000535 ± 1.9e-05 S/m
303 K, c1 = 0.001301
  electrical conductivity: 0.000552 ± 1.9e-05 S/m
308 K, c1 = 3.09e-05
  electrical conductivity: 2.71e-05 ± 1.4e-06 S/m
308 K, c1 = 6.1e-05
  electrical conductivity: 5.24e-05 ± 2.4e-06 S/m
308 K, c1 = 9.04e-05
  electrical conductivity: 7.56e-05 ± 3.2e-06 S/m
308 K, c1 = 0.000119
  electrical conductivity: 9.64e-05 ± 4.2e-06 S/m
308 K, c1 = 0.000147
  electrical conductivity: 0.000118 ± 5.1e-06 S/m
308 K, c1 = 0.0001744
  electrical conductivity: 0.000136 ± 5.8e-06 S/m
308 K, c1 = 0.0002064
  electrical conductivity: 0.000157 ± 6.5e-06 S/m
308 K, c1 = 0.0002376
  electrical conductivity: 0.000176 ± 6.2e-06 S/m
308 K, c1 = 0.0002778
  electrical conductivity: 0.0002 ± 7.1e-06 S/m
308 K, c1 = 0.0003166
  electrical conductivity: 0.000209 ± 7.9e-06 S/m
308 K, c1 = 0.0003541
  electrical conductivity: 0.000228 ± 9.4e-06 S/m
308 K, c1 = 0.0003903
  electrical conductivity: 0.000248 ± 1e-05 S/m
308 K, c1 = 0.0004339
  electrical conductivity: 0.00027 ± 1e-05 S/m
308 K, c1 = 0.0004757
  electrical conductivity: 0.00029 ± 1.2e-05 S/m
308 K, c1 = 0.0005237
  electrical conductivity: 0.000315 ± 1.3e-05 S/m
308 K, c1 = 0.0005695
  electrical conductivity: 0.000338 ± 1.4e-05 S/m
308 K, c1 = 0.0006132
  electrical conductivity: 0.000357 ± 1.4e-05 S/m
308 K, c1 = 0.000655
  electrical conductivity: 0.000373 ± 1.5e-05 S/m
308 K, c1 = 0.0007014
  electrical conductivity: 0.000394 ± 1.6e-05 S/m
308 K, c1 = 0.0007517
  electrical conductivity: 0.000412 ± 1.7e-05 S/m
308 K, c1 = 0.0007993
  electrical conductivity: 0.000434 ± 1.7e-05 S/m
308 K, c1 = 0.0008444
  electrical conductivity: 0.000457 ± 1.8e-05 S/m
308 K, c1 = 0.0008974
  electrical conductivity: 0.000482 ± 1.9e-05 S/m
308 K, c1 = 0.0009472
  electrical conductivity: 0.000502 ± 1.9e-05 S/m
308 K, c1 = 0.001003
  electrical conductivity: 0.000527 ± 2e-05 S/m
308 K, c1 = 0.001063
  electrical conductivity: 0.000551 ± 2e-05 S/m
308 K, c1 = 0.001123
  electrical conductivity: 0.000561 ± 2.1e-05 S/m
308 K, c1 = 0.001181
  electrical conductivity: 0.000594 ± 2.1e-05 S/m
308 K, c1 = 0.001241
  electrical conductivity: 0.000613 ± 2.2e-05 S/m
308 K, c1 = 0.001301
  electrical conductivity: 0.000631 ± 2.2e-05 S/m
313 K, c1 = 3.09e-05
  electrical conductivity: 3.69e-05 ± 2.2e-06 S/m
313 K, c1 = 6.1e-05
  electrical conductivity: 6.8e-05 ± 3.4e-06 S/m
313 K, c1 = 9.04e-05
  electrical conductivity: 9.61e-05 ± 4.6e-06 S/m
313 K, c1 = 0.000119
  electrical conductivity: 0.000122 ± 6e-06 S/m
313 K, c1 = 0.000147
  electrical conductivity: 0.000149 ± 7.1e-06 S/m
313 K, c1 = 0.0001744
  electrical conductivity: 0.000173 ± 8.2e-06 S/m
313 K, c1 = 0.0002064
  electrical conductivity: 0.000197 ± 8.7e-06 S/m
313 K, c1 = 0.0002376
  electrical conductivity: 0.000208 ± 8.9e-06 S/m
313 K, c1 = 0.0002778
  electrical conductivity: 0.000237 ± 9.3e-06 S/m
313 K, c1 = 0.0003166
  electrical conductivity: 0.000264 ± 1.2e-05 S/m
313 K, c1 = 0.0003541
  electrical conductivity: 0.000286 ± 1.4e-05 S/m
313 K, c1 = 0.0003903
  electrical conductivity: 0.000309 ± 1.4e-05 S/m
313 K, c1 = 0.0004339
  electrical conductivity: 0.000327 ± 1.5e-05 S/m
313 K, c1 = 0.0004757
  electrical conductivity: 0.000363 ± 1.6e-05 S/m
313 K, c1 = 0.0005237
  electrical conductivity: 0.000393 ± 1.8e-05 S/m
313 K, c1 = 0.0005695
  electrical conductivity: 0.000419 ± 1.9e-05 S/m
313 K, c1 = 0.0006132
  electrical conductivity: 0.000441 ± 2e-05 S/m
313 K, c1 = 0.000655
  electrical conductivity: 0.000463 ± 2.1e-05 S/m
313 K, c1 = 0.0007014
  electrical conductivity: 0.000486 ± 2.2e-05 S/m
313 K, c1 = 0.0007517
  electrical conductivity: 0.000511 ± 2.3e-05 S/m
313 K, c1 = 0.0007993
  electrical conductivity: 0.000533 ± 2.3e-05 S/m
313 K, c1 = 0.0008444
  electrical conductivity: 0.000547 ± 2.3e-05 S/m
313 K, c1 = 0.0008974
  electrical conductivity: 0.000572 ± 2.2e-05 S/m
313 K, c1 = 0.0009472
  electrical conductivity: 0.000592 ± 2.3e-05 S/m
313 K, c1 = 0.001003
  electrical conductivity: 0.000614 ± 2.3e-05 S/m
313 K, c1 = 0.001063
  electrical conductivity: 0.000635 ± 2.3e-05 S/m
313 K, c1 = 0.001123
  electrical conductivity: 0.000656 ± 2.5e-05 S/m
313 K, c1 = 0.001181
  electrical conductivity: 0.000674 ± 2.3e-05 S/m
313 K, c1 = 0.001241
  electrical conductivity: 0.000692 ± 2.3e-05 S/m
313 K, c1 = 0.001301
  electrical conductivity: 0.000712 ± 2.4e-05 S/m
